Structures can show the parent of a compound that is named as a salt.
Experiments:
Format in all cases: biochemical
[1] = target: human TYK2 catalytic kinase (JH1) domain (Homo sapiens (Human), UniProt P29597); assay: ADP-Glo Kinase Assay, recombinant TYK2 catalytic kinase (JH1) domain; details: recombinant JH1 domain 2 nM, 10 μM ATP, JAK3-974 peptide, mean, read-out: TYK2 biochem IC50 (nM) Mean
Description: (§1) Compounds of the disclosure were assessed for their ability to inhibit TYK2, JAK1, JAK2, and JAK3 activity. The inhibitory properties of the compounds of the disclosure described herein can be evidenced by testing in any one of the following protocols.
(§2) The kinase activity of recombinantly generated catalytic kinase (also known as JH1) domain of human JAK1, JAK2, JAK3 and TYK2 were evaluated in a plate-based assay using the ADP-Glo™ Kinase Assay platform. Specifically, 4 nM of recombinant JAK1 kinase domain is used to phosphorylate 50 μM of a JAK3-342 (sequence ALVDGYFRLTT) peptide in the presence of 35 μM ATP. Catalytic activities of recombinant JAK2, JAK3 and TYK2 kinase domain (0.2, 0.3 and 2 nM, respectively) are evaluated by the phosphorylation status of the JAK3-974 (50 μM; sequence LPLDKDYYVVR) peptide with the addition of ATP (15, 4 and 10 μM, respectively). The reactions proceed for 100 minutes and the catalytic activity is quantified by first depleting the unused ATP, converting the hydrolyzed ADP into ATP to generate luminescence in a luciferase reaction; which is the basis of the ADP-Glo platform. Compounds are tested at either 10 μM or 1 μM top concentration, 11 points of 3-fold dilution. The data is normalized and the percent activity versus log concentration of compound is fitted with a 4-parameter logistic model to generate a curve and an IC50 value.

[2] = target: human JAK2 catalytic kinase (JH1) domain (Homo sapiens (Human), UniProt O60674); assay: ADP-Glo Kinase Assay, recombinant JAK2 catalytic kinase (JH1) domain; details: recombinant JH1 domain 0.2 nM, 15 μM ATP, JAK3-974 peptide, mean, read-out: JAK2 biochem IC50 (nM) Mean
human JAK2 catalytic kinase (JH1) domain, sequence (O60674 849-1124): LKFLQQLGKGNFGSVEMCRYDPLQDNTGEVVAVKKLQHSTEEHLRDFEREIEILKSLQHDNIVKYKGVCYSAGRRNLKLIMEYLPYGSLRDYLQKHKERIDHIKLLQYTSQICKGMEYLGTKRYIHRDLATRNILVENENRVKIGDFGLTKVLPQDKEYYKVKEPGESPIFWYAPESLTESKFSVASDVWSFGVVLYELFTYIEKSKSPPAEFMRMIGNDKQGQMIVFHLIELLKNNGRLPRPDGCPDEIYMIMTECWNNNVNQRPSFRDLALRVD
Description: as §1, §2

[3] = target: human JAK1 catalytic kinase (JH1) domain (Homo sapiens (Human), UniProt P23458); assay: ADP-Glo Kinase Assay, recombinant JAK1 catalytic kinase (JH1) domain; details: recombinant JH1 domain 4 nM, 35 μM ATP, JAK3-342 peptide, mean, read-out: JAK1 biochem IC50 (nM) Mean
human JAK1 catalytic kinase (JH1) domain, sequence (P23458 875-1153): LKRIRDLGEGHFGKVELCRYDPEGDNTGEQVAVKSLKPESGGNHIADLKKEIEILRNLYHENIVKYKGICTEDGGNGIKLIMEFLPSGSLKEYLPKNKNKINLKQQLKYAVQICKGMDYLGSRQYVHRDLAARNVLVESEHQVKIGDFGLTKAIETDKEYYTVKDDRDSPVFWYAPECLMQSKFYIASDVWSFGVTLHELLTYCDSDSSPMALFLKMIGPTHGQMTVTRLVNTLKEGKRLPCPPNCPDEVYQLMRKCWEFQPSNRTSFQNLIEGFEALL
Description: as §1, §2

[4] = target: human JAK3 catalytic kinase (JH1) domain (Homo sapiens (Human), UniProt P52333); assay: ADP-Glo Kinase Assay, recombinant JAK3 catalytic kinase (JH1) domain; details: recombinant JH1 domain 0.3 nM, 4 μM ATP, JAK3-974 peptide, mean, read-out: JAK3 biochem IC50 (nM) Mean
human JAK3 catalytic kinase (JH1) domain, sequence (P52333 822-1111): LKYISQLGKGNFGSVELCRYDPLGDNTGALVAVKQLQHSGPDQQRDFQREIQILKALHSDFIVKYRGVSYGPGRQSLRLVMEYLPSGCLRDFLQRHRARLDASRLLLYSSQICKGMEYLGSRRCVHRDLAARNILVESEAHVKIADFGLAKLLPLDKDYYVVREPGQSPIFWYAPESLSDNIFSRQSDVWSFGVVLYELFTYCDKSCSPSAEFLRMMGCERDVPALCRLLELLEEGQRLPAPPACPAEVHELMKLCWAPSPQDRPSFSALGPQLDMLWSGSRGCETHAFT
Description: as §1, §2

human TYK2 catalytic kinase (JH1) domain, sequence (P29597 897-1176): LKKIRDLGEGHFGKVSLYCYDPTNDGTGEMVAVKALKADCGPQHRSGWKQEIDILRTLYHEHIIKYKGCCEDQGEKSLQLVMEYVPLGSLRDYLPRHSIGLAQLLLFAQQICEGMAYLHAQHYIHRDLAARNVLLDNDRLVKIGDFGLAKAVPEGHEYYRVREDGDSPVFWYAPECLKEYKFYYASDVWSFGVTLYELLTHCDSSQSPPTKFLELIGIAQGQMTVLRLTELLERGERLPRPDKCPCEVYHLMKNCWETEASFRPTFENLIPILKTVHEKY

Compound	IC50 [1]	IC50 [2]	IC50 [3]	IC50 [4]
Cn1cc(-c2cc3c(N4CC5CCC(C4)N5C(=O)CC#N)ccnn3c2)cn1 [Example 23, 3-(3-(6-(1-methyl-1H-pyrazol-4-yl)pyrrolo[1,2-b]pyridazin-4-yl)-3,8-diazabicyclo[3.2.1]octan-8-yl)-3-oxopropanenitrile]	9.8 nM	117 nM	137 nM	346 nM
O=C([C@@H]1C[C@H]1F)N1C2CCC1CN(c1ccnn3cc(C4CC4)cc13)C2 [Example 24, (3-(6-cyclopropylpyrrolo[1,2-b]pyridazin-4-yl)-3,8-diazabicyclo[3.2.1]octan-8-yl)((1S,2R)-2-fluorocyclopropyl)methanone]	164 nM	5900 nM	2740 nM	9080 nM
O=C([C@@H]1CC1(F)F)N1C2CCC1CN(c1ccnn3cc(C4CC4)cc13)C2 [Example 25, (3-(6-cyclopropylpyrrolo[1,2-b]pyridazin-4-yl)-3,8-diazabicyclo[3.2.1]octan-8-yl)((S)-2,2-difluorocyclopropyl)methanone]	662 nM	10000 nM	8060 nM	10000 nM
COc1nccc(-c2cc3c(N4CC5CCC(C4)N5C(=O)[C@@H]4C[C@H]4F)ccnn3c2)c1F [Example 26, (3-(6-(3-fluoro-2-methoxypyridin-4-yl)pyrrolo[1,2-b]pyridazin-4-yl)-3,8-diazabicyclo[3.2.1]octan-8-yl)((1S,2R)-2-fluorocyclopropyl)methanone]	9.8 nM	145 nM	292 nM	1190 nM
COc1cc(-c2cc3c(N4CC5CCC(C4)N5C(=O)[C@@H]4C[C@H]4F)ccnn3c2)c(F)cn1 [Example 27, (3-(6-(5-fluoro-2-methoxypyridin-4-yl)pyrrolo[1,2-b]pyridazin-4-yl)-3,8-diazabicyclo[3.2.1]octan-8-yl)((1S,2R)-2-fluorocyclopropyl)methanone]	16 nM	325 nM	277 nM	4000 nM
O=C([C@H]1C[C@H](C(F)(F)F)C1)N1C2CCC1CN(c1ncnn3cc(-c4cnn(C(F)F)c4)cc13)C2 [Example 28, (3-(6-(1-(difluoromethyl)-1H-pyrazol-4-yl)pyrrolo[2,1-f][1,2,4]triazin-4-yl)-3,8-diazabicyclo[3.2.1]octan-8-yl)((1r,3r)-3-(trifluoromethyl)cyclobutyl)methanone]	636 nM	10000 nM	2140 nM	10000 nM
O=C([C@H]1C[C@@H](C(F)(F)F)C1)N1C2CCC1CN(c1ncnn3cc(-c4cnn(C(F)F)c4)cc13)C2 [Example 29, (3-(6-(1-(difluoromethyl)-1H-pyrazol-4-yl)pyrrolo[2,1-f][1,2,4]triazin-4-yl)-3,8-diazabicyclo[3.2.1]octan-8-yl)((1s,3s)-3-(trifluoromethyl)cyclobutyl)methanone]	238 nM	4250 nM	774 nM	7470 nM
N#CC1(C(=O)N2C3CCC2CN(c2ncnn4cc(-c5cnn(C(F)F)c5)cc24)C3)CC1 [Example 30, 1-(3-(6-(1-(difluoromethyl)-1H-pyrazol-4-yl)pyrrolo[2,1-f][1,2,4]triazin-4-yl)-3,8-diazabicyclo[3.2.1]octane-8-carbonyl)cyclopropane-1-carbonitrile trifluoroacetate]	90 nM	938 nM	191 nM	820 nM
CC(C(=O)N1C2CCC1CN(c1ncnn3cc(-c4cnn(C(F)F)c4)cc13)C2)C(F)(F)F (stereo not shown) [Example 31, 1-(3-(6-(1-(difluoromethyl)-1H-pyrazol-4-yl)pyrrolo[2,1-f][1,2,4]triazin-4-yl)-3,8-diazabicyclo[3.2.1]octan-8-yl)-3,3,3-trifluoro-2-methylpropan-1-one trifluoroacetate]	193 nM	4460 nM	1480 nM	6320 nM
CC(C)(F)C(=O)N1C2CCC1CN(c1ncnn3cc(-c4cnn(C(F)F)c4)cc13)C2 [Example 32, 1-(3-(6-(1-(difluoromethyl)-1H-pyrazol-4-yl)pyrrolo[2,1-f][1,2,4]triazin-4-yl)-3,8-diazabicyclo[3.2.1]octan-8-yl)-2-fluoro-2-methylpropan-1-one trifluoroacetate]	242 nM	4400 nM	1800 nM	2990 nM
C[C@]1(F)C[C@@H](C(=O)N2C3CCC2CN(c2ncnn4cc(-c5cnn(C(F)F)c5)cc24)C3)C1 [Example 33, (3-(6-(1-(difluoromethyl)-1H-pyrazol-4-yl)pyrrolo[2,1-f][1,2,4]triazin-4-yl)-3,8-diazabicyclo[3.2.1]octan-8-yl)((1s,3s)-3-fluoro-3-methylcyclobutyl)methanone trifluoroacetate]	476 nM	6140 nM	854 nM	4430 nM
C[C@]1(F)C[C@H](C(=O)N2C3CCC2CN(c2ncnn4cc(-c5cnn(C(F)F)c5)cc24)C3)C1 [Example 34, (3-(6-(1-(difluoromethyl)-1H-pyrazol-4-yl)pyrrolo[2,1-f][1,2,4]triazin-4-yl)-3,8-diazabicyclo[3.2.1]octan-8-yl)((1r,3r)-3-fluoro-3-methylcyclobutyl)methanone trifluoroacetate]	510 nM	7520 nM	3190 nM	9510 nM
CCOC1CC1C(=O)N1C2CCC1CN(c1ncnn3cc(-c4cnn(C(F)F)c4)cc13)C2 (stereo not shown) [Example 35, (3-(6-(1-(difluoromethyl)-1H-pyrazol-4-yl)pyrrolo[2,1-f][1,2,4]triazin-4-yl)-3,8-diazabicyclo[3.2.1]octan-8-yl)(2-ethoxycyclopropyl)methanone trifluoroacetate]	856 nM	10000 nM	4660 nM	10000 nM
O=C(C1CC(O)(C(F)(F)F)C1)N1C2CCC1CN(c1ncnn3cc(-c4cnn(C(F)F)c4)cc13)C2 (stereo not shown) [Example 36, (3-(6-(1-(difluoromethyl)-1H-pyrazol-4-yl)pyrrolo[2,1-f][1,2,4]triazin-4-yl)-3,8-diazabicyclo[3.2.1]octan-8-yl)(3-hydroxy-3-(trifluoromethyl)cyclobutyl)methanone trifluoroacetate]	968 nM	7490 nM	2200 nM	5840 nM
COc1cc(-n2cc3nccc(N4CC5CCC(C4)N5C(=O)[C@@H]4C[C@H]4F)c3n2)ccn1 [Example 37, ((1S,2R)-2-fluorocyclopropyl)(3-(2-(2-methoxypyridin-4-yl)-2H-pyrazolo[4,3-b]pyridin-7-yl)-3,8-diazabicyclo[3.2.1]octan-8-yl)methanone]	11 nM	88 nM	72 nM	868 nM
CCC(=O)N1C2CCC1CN(c1ncnn3cc(-c4cnn(C(F)F)c4)cc13)C2 [Example 41, 1-(3-(6-(1-(difluoromethyl)-1H-pyrazol-4-yl)pyrrolo[2,1-f][1,2,4]triazin-4-yl)-3,8-diazabicyclo[3.2.1]octan-8-yl)propan-1-one]	560 nM	8760 nM	2260 nM	8430 nM
CC(C)C(=O)N1C2CCC1CN(c1ncnn3cc(-c4cnn(C(F)F)c4)cc13)C2 [Example 42, 1-(3-(6-(1-(difluoromethyl)-1H-pyrazol-4-yl)pyrrolo[2,1-f][1,2,4]triazin-4-yl)-3,8-diazabicyclo[3.2.1]octan-8-yl)-2-methylpropan-1-one]	466 nM	7960 nM	5220 nM	9510 nM
O=C(CC(F)(F)F)N1C2CCC1CN(c1ncnn3cc(-c4cnn(C(F)F)c4)cc13)C2 [Example 43, 1-(3-(6-(1-(difluoromethyl)-1H-pyrazol-4-yl)pyrrolo[2,1-f][1,2,4]triazin-4-yl)-3,8-diazabicyclo[3.2.1]octan-8-yl)-3,3,3-trifluoropropan-1-one]	223 nM	5200 nM	892 nM	4640 nM
N#CCC(=O)N1C2CCC1CN(c1ncnn3cc(-c4cnn(C(F)F)c4)cc13)C2 [Example 44, 3-(3-(6-(1-(difluoromethyl)-1H-pyrazol-4-yl)pyrrolo[2,1-f][1,2,4]triazin-4-yl)-3,8-diazabicyclo[3.2.1]octan-8-yl)-3-oxopropanenitrile]	236 nM	4180 nM	395 nM	5390 nM

— US20240360157A1, “TYK2 INHIBITORS” (BIOGEN MA INC., priority 2021, published 2024)
